Article PMC10610214 (Pharmaceuticals, 2023)
“And” between values parts separate entries of the source, which are not always exact repeats. Identical values can stand only once. “Also recorded” adds a separate entry of the source.

Columns and labels:
[1] = Metal chelation by UV–Vis spectroscopy; type: physicochemical; details: 20 μM 4h, 1 equivalent CuCl2, methanol/water 1/1
Protocol: In the wavelength range of 200–600 nm, the metal chelating ability of compound 4h was analyzed by UV–Vis spectroscopy. Specifically, compound 4h (dissolved in DMSO) solutions were prepared with a mixture of methanol and deionized water (1/1). Stock solutions of cation salts (10 mM) were prepared with deionized water and then in the presence or absence of ZnCl2, CuCl2, AlCl3, FeSO4, MgCl2, and CaCl2 (20 μM, final concentration), respectively, and incubated with 4h (20 μM, final concentration) for 1 h at room temperature. The final volume of the reaction mixture was 2 mL. The UV absorption of the test substance was recorded in a 1 cm quartz cell.

AML-12 cells = test: Hepatotoxicity in AML-12 cells (MTT); type: cell-based; details: 10, 30 and 50 μM
Protocol: The hepatotoxicity of compound 4h in normal AML-12 hepatocytes and HepG2 liver cancer cells was examined by MTT method. AML-12 cells and HepG2 cells were seeded into 96-well plates at a density of 5.0 × 10^3 cells per well, respectively. After the cells were incubated overnight, the old medium was discarded. The cells were incubated for 48 h with fresh medium containing various concentrations of the test compound. After 48 h of incubation, 20 μL of MTT (5 mg/mL) was added to each well and incubate for an additional 4 h. Formazan was dissolved with DMSO (150 μL). […]

AChE = target: T1, AChE (Electrophorus electricus, UniProt O42275); test: Kinetic study of AChE inhibition (Lineweaver–Burk); type: biochemical
T1 construct: AChE (from electric eel); purchased Sigma Chemical Company (St. Louis, MO, USA)
Protocol: The specific steps are similar to those described in Section 4.3 for the enzyme inhibition assay. In brief, 100 μL of different concentrations of 4h (0, 0.075, 0.15, and 0.3 μM)/4h (0, 3, 6, and 12 μM) and 100 μL of different concentrations of AChE/BuChE (1, 0.5, 0.25, 0.125, and 0.0625 U/mL) were added into 48-well plates and then co-incubated at 37 °C for 30 min. After the end of incubation, 100 μL of ATCI/BTCI (0.35 mM), 100 μL of PB solution, and 100 μL DTNB (0.35 mM) were added, and then changes in absorbance were measured at different times at 412 nm by multifunctional microplate reader, and the catalytic reaction rate of AChE/BuChE was determined. All concentrations are final. With the enzyme reaction rate V as the ordinate and AChE/BuChE concentration as the abscissa, the curve was drawn to determine the reversibility of the compound to AChE/BuChE.
In order to determination of inhibition types and the constant of AChE/BuChE, the concentration of AChE/BuChE (0.5 U/mL) in the reaction system was fixed. Five different substrate concentrations and four different concentrations of test compound 4h were used to measure the absorbance changes at different times at 412 nm. The reciprocal of the enzymatic reaction rate (1/V) was taken as the ordinate, and the reciprocal of the substrate ATCI/BTCI concentration (1/S) was taken as the abscissa.
[…]. […]

DPPH radical scavenging = type: physicochemical; details: vs no-compound group
Protocol: DPPH is a commercially available stable organic nitrogen radical with maximum UV absorption at 515 nm. After reduction, the color of the solution fades (absorbance decreases). Therefore, this method was used to evaluate the antioxidant capacity of the compounds. In short, 50 μL of DPPH (140 μM) and 50 μL of different concentrations (10, 100, and 1000 μM) of compound 4h were added together in a 96-well plate and then incubated in the dark at 37 °C for 2 h. The absorbance was measured at 515 nm through the multifunctional microplate reader. The scavenging rate (SR) of DPPH radicals was calculated by the following formula: SR = (1 − Ac/A0) × 100%, where “Ac” is the absorbance of DPPH and the compound solution incubating, and “A0” is the absorbance of the DPPH radical-ethanol solution alone. The experimental results are expressed as the average of three tests.

H2O2-induced PC12 cells = test: Neuroprotection against H2O2-induced PC12 cell injury (MTT); type: cell-based; details: H2O2 250 μM, mean ± SEM
Protocol: Neuroprotection assay is similar to cytotoxicity. Oxidative cellular damage caused by H2O2 has become one of the important methods to study oxidative damage in neural cells. PC12 cells were seeded into a 96-well plate at a density of 5.0 × 10^3 cells per well. After the cells were incubated overnight, the old medium was discarded. […] After incubating overnight, 20 μL of MTT solution (5 mg/mL, Sigma-Aldrich) was added per well, and the cells were incubated for an additional 4 h. Afterwards, the supernatant was removed and 150 μL of DMSO was added. The 96-well plate was placed on the shaker for 10–15 min, and then the absorbance at 492 nm was measured by a microplate reader.

iNOS = iNOS expression in LPS-stimulated BV2 cells (Western blot); type: cell-based; details: 1, 2, 4 μM
Protocol: (§1) BV2 cells were seeded into a 6-well plate at a density of 3.0 × 10^5 cells per well. After incubation overnight, the old medium was discarded. Then, the cells were pretreated with various concentrations (1, 2, and 4 μM) of 4h for 1 h and then co-incubated with LPS (1 μg/mL) for 24 h. After incubation was completed, the cells were washed twice with PBS, and 300 μL of cell lysis buffer (RIRA lysis buffer, phosphatase inhibitor, protease inhibitor, and PMSF) was added to each well. The cells were then incubated on ice for 30 min and centrifuged at 12,000 rpm at 4 °C for 30 min to collect the supernatant. The protein content in the supernatant was detected using the BCA protein detection kit (Beyotime, Shanghai, China). Total proteins were separated by 10% SDS-PAGE and then transferred from the gel to a PVDF membrane (Sigma-Aldrich, Shanghai, China). The membranes were blocked in TBST solution containing 5% skimmed milk for 2 h. Next, the membranes were washed three times (TBST) and incubated with primary antibody dilution (Cell Signaling Technologies, Boston, MA, USA) overnight at 4 °C. Then, they were washed another three times (TBST), incubated with the secondary antibody at room temperature for 90 min, and then washed three times with TBST. The blots were visualized by a chemiluminescence imager (Tanon 5200, Shanghai, China).

COX-2 = COX-2 expression in LPS-stimulated BV2 cells (Western blot); type: cell-based; details: 1, 2, 4 μM
Protocol: as §1

T1 sequence (O42275 24-633): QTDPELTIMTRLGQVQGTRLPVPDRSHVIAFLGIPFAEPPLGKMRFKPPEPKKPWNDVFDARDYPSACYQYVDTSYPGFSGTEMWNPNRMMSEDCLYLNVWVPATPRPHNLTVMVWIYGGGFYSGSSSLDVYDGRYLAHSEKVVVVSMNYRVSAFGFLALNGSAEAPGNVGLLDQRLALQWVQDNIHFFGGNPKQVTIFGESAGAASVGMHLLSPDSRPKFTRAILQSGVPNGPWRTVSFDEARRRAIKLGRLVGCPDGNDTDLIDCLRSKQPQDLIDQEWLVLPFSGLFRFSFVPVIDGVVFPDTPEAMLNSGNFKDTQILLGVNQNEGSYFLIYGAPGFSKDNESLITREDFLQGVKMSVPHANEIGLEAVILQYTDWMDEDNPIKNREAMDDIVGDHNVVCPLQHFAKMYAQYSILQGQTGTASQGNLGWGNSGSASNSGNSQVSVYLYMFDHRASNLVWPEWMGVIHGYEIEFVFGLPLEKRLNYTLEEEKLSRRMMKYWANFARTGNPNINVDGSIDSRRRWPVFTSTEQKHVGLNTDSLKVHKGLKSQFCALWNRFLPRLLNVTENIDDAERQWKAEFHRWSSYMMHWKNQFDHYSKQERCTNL

## O=C1c2cc(NS(=O)(=O)c3ccccc3F)ccc2-n2c1nc1ccccc1c2=O [4h]
[1]
  Metal chelating ability (UV–Vis): maximum absorption intensity at 261 nm was markedly reduced; also recorded: can chelate Cu^2+
AML-12 cells
  Hepatotoxicity in AML-12 cells: had no toxicity
AChE; Lineweaver–Burk double-reciprocal plot
  AChE inhibition type: mixed-type inhibition
AChE; Lineweaver–Burk secondary plot
  Ki: 0.0831 µM
DPPH radical scavenging; 10 μM compound
  Concentration of DPPH (%): 84.76 ± 4.21% and 84.76%
DPPH radical scavenging; 100 μM compound
  Concentration of DPPH (%): 74.6 ± 2.51%
DPPH radical scavenging; 1000 μM compound
  Concentration of DPPH (%): 36.51 ± 2.78% and 36.51%
H2O2-induced PC12 cells; compound 10 μM
  H2O2-Induced PC12 Cell Viability (% of Control): 61.66 ± 1.3 % of Control
H2O2-induced PC12 cells; compound 30 μM
  H2O2-Induced PC12 Cell Viability (% of Control): 71.31 ± 1.9 % of Control
iNOS
  iNOS expression: significantly decreased the expression of COX-2 and iNOS
COX-2
  COX-2 expression: significantly decreased the expression of COX-2 and iNOS
